What all share (format): functional, organism-based
In data set [1] the target is ATP-dependent translocase ABCB1 (Rattus norvegicus, UniProt P43245). The data set can be described thus: (§1) TP_TRANSPORTER: RT-PCR in vivo Wistar rat, liver.
In data set [2] the target is Multidrug resistance protein 1a (Rattus norvegicus) (UniProt Q6PSM0). The data set is described as §1.
Data set [3] shares this target. In words: TP_TRANSPORTER: Western in vivo Wistar rat, liver.

Each structure is given as a SMILES string.

Multidrug resistance protein 1a (Rattus norvegicus), sequence (Q6PSM0 as listed by the source): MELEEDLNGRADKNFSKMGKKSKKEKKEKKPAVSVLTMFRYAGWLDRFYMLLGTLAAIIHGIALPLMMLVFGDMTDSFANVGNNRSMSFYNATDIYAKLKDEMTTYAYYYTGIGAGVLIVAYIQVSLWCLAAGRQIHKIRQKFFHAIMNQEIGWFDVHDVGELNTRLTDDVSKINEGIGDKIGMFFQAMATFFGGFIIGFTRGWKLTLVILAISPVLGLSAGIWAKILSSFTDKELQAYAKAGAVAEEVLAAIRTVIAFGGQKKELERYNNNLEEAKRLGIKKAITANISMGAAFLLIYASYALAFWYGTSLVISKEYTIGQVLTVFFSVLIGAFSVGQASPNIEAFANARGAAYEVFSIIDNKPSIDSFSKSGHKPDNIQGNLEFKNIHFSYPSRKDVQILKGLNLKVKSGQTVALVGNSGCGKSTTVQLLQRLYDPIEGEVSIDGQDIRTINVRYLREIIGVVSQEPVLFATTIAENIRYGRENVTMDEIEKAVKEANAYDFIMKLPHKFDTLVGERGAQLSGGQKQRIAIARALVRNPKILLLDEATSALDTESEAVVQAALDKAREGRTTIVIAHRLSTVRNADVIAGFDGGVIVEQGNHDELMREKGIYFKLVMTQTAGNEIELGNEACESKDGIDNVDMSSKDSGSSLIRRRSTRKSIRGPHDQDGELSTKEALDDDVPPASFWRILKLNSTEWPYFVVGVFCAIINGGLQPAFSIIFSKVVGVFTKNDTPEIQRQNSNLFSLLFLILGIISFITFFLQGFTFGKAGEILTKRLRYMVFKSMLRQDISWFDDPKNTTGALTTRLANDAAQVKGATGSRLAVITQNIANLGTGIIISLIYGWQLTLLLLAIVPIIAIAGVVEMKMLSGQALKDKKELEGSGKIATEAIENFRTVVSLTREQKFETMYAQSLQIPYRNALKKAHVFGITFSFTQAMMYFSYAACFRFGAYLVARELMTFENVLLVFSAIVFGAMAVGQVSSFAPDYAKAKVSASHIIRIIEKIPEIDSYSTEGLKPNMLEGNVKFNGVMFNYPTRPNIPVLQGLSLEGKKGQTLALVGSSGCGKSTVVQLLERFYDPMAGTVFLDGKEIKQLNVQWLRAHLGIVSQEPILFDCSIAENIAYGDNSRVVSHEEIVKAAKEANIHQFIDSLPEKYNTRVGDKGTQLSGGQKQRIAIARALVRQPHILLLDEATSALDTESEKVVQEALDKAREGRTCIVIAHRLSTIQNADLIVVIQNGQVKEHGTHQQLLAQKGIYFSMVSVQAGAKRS
ATP-dependent translocase ABCB1, sequence (P43245 whole entry): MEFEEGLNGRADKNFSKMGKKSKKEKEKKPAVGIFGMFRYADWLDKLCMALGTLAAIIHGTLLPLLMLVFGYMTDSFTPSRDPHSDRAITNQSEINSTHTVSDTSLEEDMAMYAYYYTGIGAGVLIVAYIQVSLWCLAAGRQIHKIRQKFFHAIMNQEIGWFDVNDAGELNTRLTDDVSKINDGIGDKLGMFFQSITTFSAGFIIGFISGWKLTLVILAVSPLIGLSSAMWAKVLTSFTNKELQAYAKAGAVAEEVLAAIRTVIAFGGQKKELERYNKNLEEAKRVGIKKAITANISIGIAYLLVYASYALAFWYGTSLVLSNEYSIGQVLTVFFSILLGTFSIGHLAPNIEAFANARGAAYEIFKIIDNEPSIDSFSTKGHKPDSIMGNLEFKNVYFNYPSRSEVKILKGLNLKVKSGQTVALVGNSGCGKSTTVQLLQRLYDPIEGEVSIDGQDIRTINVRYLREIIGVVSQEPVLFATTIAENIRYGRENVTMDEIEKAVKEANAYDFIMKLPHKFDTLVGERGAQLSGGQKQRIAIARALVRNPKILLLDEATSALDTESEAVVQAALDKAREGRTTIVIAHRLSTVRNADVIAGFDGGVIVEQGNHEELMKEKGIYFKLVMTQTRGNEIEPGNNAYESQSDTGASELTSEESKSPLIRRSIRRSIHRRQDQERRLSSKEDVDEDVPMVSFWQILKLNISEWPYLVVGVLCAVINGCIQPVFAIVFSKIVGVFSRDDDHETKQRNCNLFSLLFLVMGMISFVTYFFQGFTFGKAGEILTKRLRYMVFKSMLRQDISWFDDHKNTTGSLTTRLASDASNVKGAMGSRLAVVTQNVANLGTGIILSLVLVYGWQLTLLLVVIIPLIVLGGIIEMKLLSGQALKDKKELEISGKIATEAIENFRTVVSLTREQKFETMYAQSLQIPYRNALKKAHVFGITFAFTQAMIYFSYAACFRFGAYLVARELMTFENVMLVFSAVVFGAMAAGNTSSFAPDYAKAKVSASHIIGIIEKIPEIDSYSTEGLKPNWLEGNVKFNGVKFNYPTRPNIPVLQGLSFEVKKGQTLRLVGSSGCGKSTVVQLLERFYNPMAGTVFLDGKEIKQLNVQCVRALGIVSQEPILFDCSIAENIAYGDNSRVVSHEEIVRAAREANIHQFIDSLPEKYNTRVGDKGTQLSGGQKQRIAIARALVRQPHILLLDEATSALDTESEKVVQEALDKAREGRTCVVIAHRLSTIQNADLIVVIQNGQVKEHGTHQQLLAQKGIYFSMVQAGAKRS

On to `CC(=O)Nc1ccc2c(c1)Cc1ccccc1-2` [2-ACETYLAMINOFLUORENE], for which the Activity entry in data set [1], in data set [2] and in data set [3] was “inducer [+]” in each case.

The values are drawn from ChEMBL document CHEMBL2073928, “Overlapping substrate specificities and tissue distribution of cytochrome P450 3A and P-glycoprotein: implications for drug delivery and activity in cancer chemotherapy” (Mol Carcinog, 1995).
